In assay [1] the test system is Mycolicibacterium smegmatis. Briefly: Antimycobacterial activity against Mycobacterium smegmatis MC2 155 measured after 48 hrs by resazurin dye-based MABA method. The note with it: str. MC2 155, 48 h. The assay is classed as functional.
Assay [2] has as its system Mycobacterium tuberculosis. Briefly: (§1) Inhibition of recombinant Mycobacterium tuberculosis FtsZ polymerization expressed in Escherichia coli assessed as inhibition of protofilament formation by measuring intensity of light scattering in presence of GTP by fluorescence spectrophotometry method.
The nature of assay [3]: as §1.
In assay [4] the test system is Mycobacterium tuberculosis. Briefly: (§2) Inhibition of recombinant Mycobacterium tuberculosis FtsZ GTPase activity expressed in Escherichia coli assessed as inorganic phosphate release measured after 15 mins in presence of GTP using malachite green dye by fluorescence spectrophotometry.
Assay [5] in a line: as §2.
For assay [6], the system named is Mycobacterium tuberculosis. Put plainly: Inhibition of recombinant Mycobacterium tuberculosis FtsZ GTPase activity expressed in Escherichia coli assessed as inorganic phosphate release at 50 uM measured after 15 mins in presence of GTP using malachite green dye by fluorescence spectrophotometry relative to control.
Assay [7] deals with Mycobacterium tuberculosis. Put plainly: Inhibition of Mycobacterium tuberculosis FtsZ polymerization at 50 uM measured after 1 hr by sodium tungstate staining based transmission electron microscopic method.
For a further assay, the system named is Bacillus subtilis. Briefly: Induction of ROS generation in Bacillus subtillis 168 assessed as DCF release at 25 to 50 uM measured after 1 hr by DCFH-DA based fluorescence microscopy. Format: functional. The settings on record: subsp. subtilis str. 168.
In assay [8] the test system is Mycolicibacterium smegmatis MC2 155. Put plainly: Inhibition of recombinant Mycobacterium smegmatis MC2 155 FtsZ assessed as increase in cell length at 50 uM measured after 2 hrs by phase contrast microscopy relative to control.
The test system of assay [9] is Mycobacterium tuberculosis. Put plainly: Inhibition of recombinant Mycobacterium tuberculosis FtsZ expressed in Escherichia coli assessed as inhibition of protofilament formation by measuring intensity of light scattering at 400 nM after 1000 sec in presence of GTP by fluorescence spectrophotometry.
Assay [10] has as its target T1, Cell division protein FtsZ (Bacillus subtilis (strain 168)) (UniProt P17865).
T1 sequence (whole entry): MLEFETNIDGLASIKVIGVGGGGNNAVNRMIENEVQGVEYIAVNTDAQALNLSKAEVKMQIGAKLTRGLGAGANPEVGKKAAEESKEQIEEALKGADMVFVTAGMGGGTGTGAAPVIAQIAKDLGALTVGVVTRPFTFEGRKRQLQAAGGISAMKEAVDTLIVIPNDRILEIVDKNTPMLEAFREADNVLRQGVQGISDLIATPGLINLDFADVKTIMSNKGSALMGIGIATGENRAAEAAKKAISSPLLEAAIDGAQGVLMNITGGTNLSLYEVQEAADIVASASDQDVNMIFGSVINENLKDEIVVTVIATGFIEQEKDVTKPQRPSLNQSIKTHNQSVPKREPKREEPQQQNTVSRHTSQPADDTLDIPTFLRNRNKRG
Briefly: Binding affinity to Bacillus subtilis 168 FtsZ assessed as effect on Z-ring assembly at 100 uM by FITC-staining based immunofluorescence microscopic method. The settings on record: Bacillus subtilis subsp. subtilis str. 168.

Assay [11] deals with T1, Cell division protein FtsZ (Bacillus subtilis (strain 168)). Briefly: Inhibition of recombinant Bacillus subtilis 168 FtsZ assessed as increase in cell length at 50 uM measured after 2 hrs by phase contrast microscopy relative to control. The settings on record: Bacillus subtilis subsp. subtilis str. 168.
Assay [12] has as its system Mycolicibacterium smegmatis. Put plainly: Induction of ROS generation in Mycobacterium smegmatis MC2 155 assessed as release of DCF at 25 to 50 uM measured after 1 hr by DCFH-DA based fluorescence spectrophotometry. The assay is classed as functional. The note with it: str. MC2 155.
Assay [13] deals with Mycobacterium tuberculosis. Briefly: Inhibition of recombinant Mycobacterium tuberculosis FtsZ expressed in Escherichia coli assessed as inhibition of protofilament formation by measuring intensity of light scattering at 400 nM up to 300 sec in presence of GTP by fluorescence spectrophotometry.
The nature of assay [14]: Displacement of ANS from recombinant Mycobacterium tuberculosis FtsZ expressed in Escherichia coli by double reciprocal plot analysis.
In assay [15] the test system is Mycobacterium tuberculosis. Put plainly: Displacement of ANS from recombinant Mycobacterium tuberculosis FtsZ expressed in Escherichia coli assessed as red shift at 20 to 140 uM after 30 mins by fluorescence analysis.

≈ marks a conversion by molar mass, not a printed value. Calls of active or inactive are those of the source. The calls are words filed in the database; no cut-off is given here. Some results are limits rather than exact numbers.

For the compound `CCN1CC(C(=O)OC)=Cc2cc(F)c(F)cc21`, in assay [1], the MIC was 0.9 µg/mL (≈ 3.55 µM). Moreover, the inhibition result in assay [2] and in [4] was “Dose-dependent effect” throughout. In addition, the IC50 is 210 µM in assay [3] (read-out: IC50) and 196 µM in assay [5] (read-out: IC50).

As to `CC(=O)C1=Cc2cc([N+](=O)[O-])ccc2N(Cc2ccccc2)C1`, the MIC in [1] turned out to be 7.5 µg/mL (≈ 24.3 µM). Further, the IC50 in assay [3] (read-out: IC50) and in assay [5] (read-out: IC50) was greater than 200 µM throughout.

As to `COC(=O)C1=Cc2cc([N+](=O)[O-])ccc2N([C@@H](C)C(=O)OC)C1`, the IC50 result in assay [3] and in [5] was “Nd(Insoluble)” each time.

Regarding `CC(C)c1c(O)ccc2c1CC[C@H]1C(C)(C)CCC[C@]21C`, the inhibition in [6] lay within 73 to 74%.

Consider `O=C(O)C1=Cc2cc([N+](=O)[O-])ccc2N(Cc2ccccc2)C1`, for which the MIC in [1] was found to be 31.2 µg/mL (≈ 101 µM). In addition, the IC50 in [3] (read-out: IC50) amounted to 95 µM; in [5] (read-out: IC50), 86.6 µM.

Turning to `COC(=O)C1=Cc2cc3ccccc3nc2N([C@@H](CO)C(=O)OC)C1`, it took 15 µg/mL (≈ 43.8 µM) to inhibit growth in assay [1] (MIC). Also, the IC50 was found to be 61.5 µM in assay [3] (read-out: IC50) and 66 µM in assay [5] (read-out: IC50).

`COC(=O)C1=Cc2cc([N+](=O)[O-])ccc2N(Cc2ccccn2)C1`: in assay [1], the MIC is 62.5 µg/mL (≈ 192 µM). The IC50 in assay [3] (read-out: IC50) was found to be 194 µM; in assay [5] (read-out: IC50), 186 µM.

In assay [1], `CCN(CC)CCN1CC(C(=O)OC)=Cc2cc([N+](=O)[O-])ccc21` returned an MIC of 7.5 µg/mL (≈ 22.5 µM). In addition, the inhibition entry in assay [2] and in assay [4] was “Dose-dependent effect” in each case. The IC50 is 34 µM in assay [3] (read-out: IC50) and 38.3 µM in assay [5] (read-out: IC50).

For `COc1ccc2cc3[n+](cc2c1OC)CCc1cc2c(cc1-3)OCO2`, the inhibition in assay [6] lay in the range of 79 to 80%.

For the compound `CCCCN1CC(C(=O)OC)=Cc2cc([N+](=O)[O-])ccc21`, in assay [1], the MIC was determined as 7.5 µg/mL (≈ 25.8 µM). The IC50 in [3] (read-out: IC50) and in assay [5] (read-out: IC50) was greater than 200 µM in each case.

Consider `CN[C@@H]1[C@H](O[C@H]2[C@H](O[C@H]3[C@H](O)[C@@H](O)[C@H](N=C(N)N)[C@@H](O)[C@@H]3N=C(N)N)O[C@@H](C)[C@]2(O)C=O)O[C@@H](CO)[C@H](O)[C@H]1O` [STREPTOMYCIN], for which 3 µg/mL (≈ 5.16 µM) was the least that counted as inhibitory in assay [1] (MIC).

`COC(=O)C1=Cc2cc([N+](=O)[O-])ccc2N(CCO)C1`: the MIC in assay [1] came to 3.9 µg/mL (≈ 14 µM). The IC50 in [3] (read-out: IC50) was 40.1 µM; in assay [5] (read-out: IC50) it was 41.5 µM.

With `COC(=O)C1=Cc2ccccc2N(S(=O)(=O)c2ccc(C)cc2)C1`, the IC50 result in [3] and in assay [5] was “Nd(Insoluble)” throughout.

`C[C@H](c1ccccc1)N1CC(C(=O)O)=Cc2cc([N+](=O)[O-])ccc21` returned an MIC in assay [1] of 7.5 µg/mL (≈ 23.1 µM). Further, the inhibition result in [2] and in assay [4] was “Dose-dependent effect” throughout. In addition, the IC50 worked out at 40.9 µM in assay [3] (read-out: IC50) and 25.3 µM in [5] (read-out: IC50).

`COC(=O)C1=Cc2cc([N+](=O)[O-])c(Cl)cc2N([C@@H](C)c2ccccc2)C1` showed an MIC in assay [1] of 15 µg/mL (≈ 40.2 µM). Moreover, the IC50 in assay [3] (read-out: IC50) was 41.4 µM; in assay [5] (read-out: IC50), 40 µM. In assay [7], the inhibition entry was “Active”.

On to `COC(=O)C1=Cc2cc([N+](=O)[O-])ccc2N([C@@H](CO)C(=O)OC)C1`, for which the outcome (in the assay on Bacillus subtilis; in assay [10]; in assay [12]) was Active. The fold change (FC) in [8] is 4; in assay [11], 6. Further, the MIC in assay [1] is 7.5 µg/mL (≈ 22.3 µM). The inhibition entry in [9], in assay [2] and in assay [4] was “Dose-dependent effect” throughout. The IC50 in assay [3] (read-out: IC50) was found to be 33.4 µM; in assay [5] (read-out: IC50), 39 µM. Further, the inhibition entry in assay [13], in assay [15] and in assay [7] was “Active” each time. In assay [14], the Kd was 8.6 µM.

Compound `CC(C)(C)OC(=O)C1=Cc2cc([N+](=O)[O-])ccc2N(Cc2ccccc2)C1` came in with an MIC in assay [1] of 7.5 µg/mL (≈ 20.5 µM). For the same compound, the IC50 in [3] (read-out: IC50) and in assay [5] (read-out: IC50) was greater than 200 µM throughout.

`COCCCN1CC(C(=O)OC)=Cc2cc([N+](=O)[O-])ccc21` came in with a minimum inhibitory concentration (MIC) in assay [1] of 1.95 µg/mL (≈ 6.37 µM). Besides, the inhibition entry in assay [2] and in assay [4] was “Dose-dependent effect” each time. The IC50 in [3] (read-out: IC50) was found to be 88.6 µM; in [5] (read-out: IC50), 89.3 µM.

Consider `CCN1CC(C(=O)OC)=Cc2cc([N+](=O)[O-])ccc21`, for which the IC50 result in assay [3] and in assay [5] was “Nd(Insoluble)” throughout.

In [1], `COC(=O)C1=Cc2cc([N+](=O)[O-])ccc2N(Cc2ccccc2)C1` had an MIC of 31.5 µg/mL (≈ 97.1 µM). In addition, the IC50 in assay [3] (read-out: IC50) stood at 184 µM; in assay [5] (read-out: IC50), 197 µM.

In assay [1], `COC(=O)C1=Cc2cc([N+](=O)[O-])ccc2N(Cc2ccc3c(c2)OCO3)C1` gave an MIC of 0.95 µg/mL (≈ 2.58 µM). Also, the inhibition result in assay [2] and in assay [4] was “Dose-dependent effect” in each case. The IC50 in assay [3] (read-out: IC50) worked out at 77.3 µM; in [5] (read-out: IC50), 78.5 µM.

The compound `CO[C@H]1/C=C/O[C@@]2(C)Oc3c(C)c(O)c4c(O)c(c(/C=N/N5CCN(C)CC5)c(O)c4c3C2=O)NC(=O)/C(C)=C\C=C\[C@H](C)[C@H](O)[C@@H](C)[C@@H](O)[C@@H](C)[C@H](OC(C)=O)[C@@H]1C` [RIFAMPIN] had an MIC in [1] of 1.75 µg/mL (≈ 2.13 µM).

For the origin of these results see ChEMBL document CHEMBL3870317, “FtsZ inhibition and redox modulation with one chemical scaffold: Potential use of dihydroquinolines against mycobacteria” (Eur J Med Chem, 2016).
